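Five concentrations, 48 hours, 96-well plates. GI50 marks 50% less growth.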 The source made the active and inactive calls. No stated cut-off is given here; in the data, active = GI50 up to about 1.1 µM and inactive = higher.
What was measured:
Experiment in all cases: DTP human tumour cell line panel, 48 h
IGROV-1 = test system: IGROV-1
NCI-H460 = test system: NCI-H460
RPMI-8226 = test system: RPMI-8226
MOLT-4 = test system: MOLT-4
SW-620 = test system: SW-620
SK-MEL-5 = test system: SK-MEL-5
ACHN = test system: ACHN
SK-MEL-28 = test system: SK-MEL-28
MCF7 = test system: MCF7
K562 = test system: K562
MDA-MB-435 = test system: MDA-MB-435
HOP-62 = test system: HOP-62
OVCAR-8 = test system: OVCAR-8
MDA-MB-231 = test system: MDA-MB-231
CAKI-1 = test system: CAKI-1
SF-295 = test system: SF-295
HCT-15 = test system: HCT-15
786-0 = test system: 786-0
CCRF-CEM = test system: CCRF-CEM
A498 = test system: A498
HCT-116 = test system: HCT-116
SN12C = test system: SN12C
COLO 205 = test system: COLO 205
UO-31 = test system: UO-31
Hs-578T = test system: Hs-578T
SF-539 = test system: SF-539
DU-145 = test system: DU-145
HOP-92 = test system: HOP-92
UACC-257 = test system: UACC-257
OVCAR-5 = test system: OVCAR-5
PC-3 = test system: PC-3
RXF 393 = test system: RXF 393
T47D = test system: T47D
LOX IMVI = test system: LOX IMVI
SNB-75 = test system: SNB-75
OVCAR-3 = test system: OVCAR-3
NCI/ADR-RES = test system: NCI/ADR-RES
SF-268 = test system: SF-268
HCC 2998 = test system: HCC 2998
HL-60 = test system: HL-60
A549 = test system: A549
NCI-H226 = test system: NCI-H226
SR = test system: SR
NCI-H23 = test system: NCI-H23
HT-29 = test system: HT-29
OVCAR-4 = test system: OVCAR-4
SK-OV-3 = test system: SK-OV-3
NCI-H522 = test system: NCI-H522
SNB-19 = test system: SNB-19
EKVX = test system: EKVX
MDA-N = test system: MDA-N
Malme-3M = test system: Malme-3M
U-251 = test system: U-251
UACC-62 = test system: UACC-62
SK-MEL-2 = test system: SK-MEL-2
KM12 = test system: KM12
TK-10 = test system: TK-10
M14 = test system: M14
BT-549 = test system: BT-549

With `COc1cc2c(c3oc4c(O)cccc4c(=O)c13)CC(C(C)(O)CCl)O2` (centres undefined) the GI50 (IGROV-1) was 2.03 µM (inactive), the GI50 (NCI-H460) was 2.64 µM (inactive) and the GI50 (RPMI-8226) was 0.0661 µM (active). The GI50 (MOLT-4) was < 0.01 µM (active), the GI50 (SW-620) was 0.0277 µM (active) and the GI50 (SK-MEL-5) was 0.279 µM (active). For the same molecule, the GI50 (ACHN) was 0.114 µM (active), the GI50 (SK-MEL-28) was 0.968 µM (active) and the GI50 (MCF7) was 0.0254 µM (active). For the same molecule, the GI50 (K562) was 0.0242 µM (active), the GI50 (MDA-MB-435) was 0.13 µM (active) and the GI50 (HOP-62) was 0.733 µM (active). For the same molecule, the GI50 (OVCAR-8) was 0.219 µM (active), the GI50 (MDA-MB-231) was 1.55 µM (inactive) and the GI50 (CAKI-1) was 1.16 µM (inactive). The GI50 (SF-295) was 1.92 µM (inactive), the GI50 (HCT-15) was 1.04 µM and the GI50 (786-0) was 0.889 µM (active). The GI50 (CCRF-CEM) was 0.0277 µM (active), the GI50 (A498) was 15.1 µM (inactive) and the GI50 (HCT-116) was 0.157 µM (active). For the same molecule, the GI50 (SN12C) was 0.209 µM (active), the GI50 (COLO 205) was 0.373 µM (active) and the GI50 (UO-31) was 0.807 µM (active). The GI50 (Hs-578T) was 2.03 µM (inactive), the GI50 (SF-539) was 0.443 µM (active) and the GI50 (DU-145) was 2.31 µM (inactive). The GI50 (HOP-92) was 2.45 µM (inactive), the GI50 (UACC-257) was 1.98 µM (inactive) and the GI50 (OVCAR-5) was 6.34 µM (inactive). For the same molecule, the GI50 (PC-3) was 1.22 µM (inactive), the GI50 (RXF 393) was 0.834 µM (active) and the GI50 (T47D) was 2.8 µM (inactive). For the same molecule, the GI50 (LOX IMVI) was < 0.01 µM (active), the GI50 (SNB-75) was 3.35 µM (inactive) and the GI50 (OVCAR-3) was 1.21 µM (inactive). The GI50 (NCI/ADR-RES) was 0.679 µM (active), the GI50 (SF-268) was 0.0728 µM (active) and the GI50 (HCC 2998) was 1.32 µM (inactive). The GI50 (HL-60) was 0.115 µM (active), the GI50 (A549) was 2.54 µM (inactive) and the GI50 (NCI-H226) was 5.81 µM (inactive). For the same molecule, the GI50 (SR) was < 0.0338 µM (active), the GI50 (NCI-H23) was 0.512 µM (active) and the GI50 (HT-29) was 0.0476 µM (active). For the same molecule, the GI50 (OVCAR-4) was 1.45 µM (inactive), the GI50 (SK-OV-3) was 4.35 µM (inactive) and the GI50 (NCI-H522) was 1.73 µM (inactive). For the same molecule, the GI50 (SNB-19) was 4.85 µM (inactive), the GI50 (EKVX) was 5.52 µM (inactive) and the GI50 (MDA-N) was 0.51 µM (active). The GI50 (Malme-3M) was 2.06 µM (inactive), the GI50 (U-251) was 1.98 µM (inactive) and the GI50 (UACC-62) was 0.728 µM (active). For the same molecule, the GI50 (SK-MEL-2) was 1.36 µM (inactive), the GI50 (KM12) was 1.29 µM (inactive) and the GI50 (TK-10) was 12.1 µM (inactive). For the same molecule, the GI50 (M14) was 0.256 µM (active) and the GI50 (BT-549) was 3.85 µM (inactive).
